Measurements reported in US12466822B2, “Heterocyclic compounds as immunomodulators” (Incyte Corporation, priority 2016, dated 2025).

Each compound was assayed against T1, PD-1/PD-L1 protein/protein interaction (recombinant human PD-L1 protein (19-238), recombinant human PD-1 protein (25-167)) (Homo sapiens, UniProt Q9NZQ7) (assay: PD-1/PD-L1 Homogeneous Time-Resolved Fluorescence (HTRF) Binding Assay). Conditions: 25° C., PBS buffer (pH 7.4), 40 minutes preincubation with inhibitors.
T1 construct: Recombinant human PD-L1 protein (19-238) with a His-tag at the C-terminus; purchased AcroBiosystems PD1-H5229 (PD-L1-His); PD1-H5257 (PD-1-Fc)
Method: The assays were conducted in a standard black 384-well polystyrene plate with a final volume of 20 μL. Inhibitors were first serially diluted in DMSO and then added to the plate wells before the addition of other reaction components. The final concentration of DMSO in the assay was 1%. The assays were carried out at 25° C. in the PBS buffer (pH 7.4) with 0.05% Tween-20 and 0.1% BSA. Recombinant human PD-L1 protein (19-238) with a His-tag at the C-terminus was purchased from AcroBiosystems (PD1-H5229). Recombinant human PD-1 protein (25-167) with Fc tag at the C-terminus was also purchased from AcroBiosystems (PD1-H5257). PD-L1 and PD-1 proteins were diluted in the assay buffer and 10 μL was added to the plate well. Plates were centrifuged and proteins were preincubated with inhibitors for 40 minutes. The incubation was followed by the addition of 10 μL of HTRF detection buffer supplemented with Europium cryptate-labeled anti-human IgG (PerkinElmer-AD0212) specific for Fc and anti-His antibody conjugated to SureLight®-Allophycocyanin (APC, PerkinElmer-AD0059H). After centrifugation, the plate was incubated at 25° C. for 60 min. before reading on a PHERAstar FS plate reader (665 nm/620 nm ratio). Final concentrations in the assay were […], 10 nM PD-L1, 1 nM europium anti-human IgG and 20 nM anti-His-Allophycocyanin. IC50 determination was performed by fitting the curve of percent control activity versus the log of the inhibitor concentration using the GraphPad Prism 5.0 software.

T1 sequence (Q9NZQ7 19-238): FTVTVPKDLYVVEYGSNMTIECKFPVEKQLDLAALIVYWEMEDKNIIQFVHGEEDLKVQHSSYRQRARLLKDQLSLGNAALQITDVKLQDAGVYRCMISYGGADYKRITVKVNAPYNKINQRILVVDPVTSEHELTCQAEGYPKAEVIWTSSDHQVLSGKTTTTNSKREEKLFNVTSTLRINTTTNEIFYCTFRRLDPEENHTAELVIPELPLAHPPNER

Question: `Cc1c(Nc2nccc3cc(CN4CC[C@@H](O)C4)cnc23)cccc1-c1cccc(Nc2ncnc3cc(CNCC(C)(C)O)cnc23)c1C` [Example 30, (R)-1-((8-(3′-(7-((2-hydroxy-2-methylpropylamino)methyl)pyrido[3,2-d]pyrimidin-4-ylamino)-2,2′-dimethylbiphenyl-3-ylamino)-1,7-naphthyridin-3-yl)methyl)pyrrolidin-3-ol] was tested. Which IC50 did it give?
Answer: Its IC50 is at most 10 nM.

Question: `Cc1c(Nc2nccc3cc(CN4CC[C@@H](C(=O)O)C4)cnc23)cccc1-c1cccc(NC(=O)c2nc3c(n2C)CCN(C)C3)c1Cl` [Example 31, (R)-1-((8-(2′-chloro-3′-(1,5-dimethyl-4,5,6,7-tetrahydro-1H-imidazo[4,5-c]pyridine-2-carboxamido)-2-methylbiphenyl-3-ylamino)-1,7-naphthyridin-3-yl)methyl)pyrrolidine-3-carboxylic acid] was tested. Which IC50 did it give?
Answer: The IC50 was at most 10 nM.

Question: With `Cc1c(Nc2nccc3cc(CN4CC[C@H](O)C4)cnc23)cccc1-c1cccc(NC(=O)c2nc3c(n2C)CCN(C)C3)c1Cl` [Example 32, (S)—N-(2-chloro-3′-(3-((3-hydroxypyrrolidin-1-yl)methyl)-1,7-naphthyridin-8-ylamino)-2′-methylbiphenyl-3-yl)-1,5-dimethyl-4,5,6,7-tetrahydro-1H-imidazo[4,5-c]pyridine-2-carboxamide] as the compound, how does the IC50 read?
Answer: The IC50 was at most 10 nM.

Question: For `Cc1c(Nc2nccc3cc(CN4CC[C@@](C)(C(=O)O)C4)cnc23)cccc1-c1cccc(NC(=O)c2nc3c(n2C)CCN(C)C3)c1Cl` [Example 33, (R)-1-((8-(2′-chloro-3′-(1,5-dimethyl-4,5,6,7-tetrahydro-1H-imidazo[4,5-c]pyridine-2-carboxamido)-2-methylbiphenyl-3-ylamino)-1,7-naphthyridin-3-yl)methyl)-3-methylpyrrolidine-3-carboxylic acid], which IC50 is on record?
Answer: The IC50 was at most 10 nM.

Question: Which IC50 does the source give for `Cc1c(Nc2nccc3cc(CN4CC[C@@H](C(=O)O)C4)cnc23)cccc1-c1cccc(-c2nc3c(s2)CNCC3)c1C` [Example 34, (R)-1-((8-((2,2′-dimethyl-3′-(4,5,6,7-tetrahydrothiazolo[5,4-c]pyridin-2-yl)-[1,1′-biphenyl]-3-yl)amino)-1,7-naphthyridin-3-yl)methyl)pyrrolidine-3-carboxylic acid] here?
Answer: The IC50 was at most 10 nM.

Question: How did the IC50 turn out when `Cc1c(Nc2nccc3cc(CN4CC[C@@H](O)C4)cnc23)cccc1-c1cccc(-c2nc3c(s2)CNCC3)c1C` [Example 35, (R)-1-((8-((2,2′-dimethyl-3′-(4,5,6,7-tetrahydrothiazolo[5,4-c]pyridin-2-yl)-[1,1′-biphenyl]-3-yl)amino)-1,7-naphthyridin-3-yl)methyl)pyrrolidin-3-ol] was run?
Answer: The IC50 was at most 10 nM.

Question: `Cc1c(Nc2nccc3cc(CN4CC[C@H](O)C4)cnc23)cccc1-c1cccc(-c2nc3c(s2)CNCC3)c1C` [Example 36, (S)-1-((8-((2,2′-dimethyl-3′-(4,5,6,7-tetrahydrothiazolo[5,4-c]pyridin-2-yl)-[1,1′-biphenyl]-3-yl)amino)-1,7-naphthyridin-3-yl)methyl)pyrrolidin-3-ol] was tested. Which IC50 did it give?
Answer: The IC50 was at most 10 nM.

Question: For `Cc1c(Nc2nccc3cc(CN4CC[C@@H](O)C4)cnc23)cccc1-c1cccc(-c2nc3c(o2)CN(C(=O)CN(C)C)C3)c1C` [Example 37, (R)-2-(dimethylamino)-1-(2-(3′-((3-((3-hydroxypyrrolidin-1-yl)methyl)-1,7-naphthyridin-8-yl)amino)-2,2′-dimethyl-[1,1′-biphenyl]-3-yl)-4,6-dihydro-5H-pyrrolo[3,4-d]oxazol-5-yl)ethan-1-one], which IC50 is on record?
Answer: The IC50 was at most 10 nM.

Question: `Cc1c(Nc2nccc3cc(CN4CC[C@H](O)C4)cnc23)cccc1-c1cccc(-c2nc3c(o2)CN(C(=O)CN(C)C)C3)c1C` [Example 38, (S)-2-(dimethylamino)-1-(2-(3′-((3-((3-hydroxypyrrolidin-1-yl)methyl)-1,7-naphthyridin-8-yl)amino)-2,2′-dimethyl-[1,1′-biphenyl]-3-yl)-4,6-dihydro-5H-pyrrolo[3,4-d]oxazol-5-yl)ethan-1-one] was tested. Which IC50 did it give?
Answer: The IC50 was at most 10 nM.

Question: How did the IC50 turn out when `Cc1c(Nc2nccc3cc(CN4CC[C@@H](O)C4)cnc23)cccc1-c1cccc(-c2nc3c(o2)CN(C(=O)CN2CC(C(=O)O)C2)C3)c1C` [Example 39, (R)-1-(2-(2-(3′-((3-((3-hydroxypyrrolidin-1-yl)methyl)-1,7-naphthyridin-8-yl)amino)-2,2′-dimethyl-[1,1′-biphenyl]-3-yl)-4,6-dihydro-5H-pyrrolo[3,4-d]oxazol-5-yl)-2-oxoethyl)azetidine-3-carboxylic acid] was run?
Answer: The IC50 was at most 10 nM.

Question: For `Cc1c(Nc2nccc3cc(CN4CC[C@@H](O)C4)cnc23)cccc1-c1cccc(-c2nc3c(o2)CN(C(=O)CN2CC[C@H](C(=O)O)C2)C3)c1C` [Example 40, (S)-1-(2-(2-(3′-((3-(((R)-3-hydroxypyrrolidin-1-yl)methyl)-1,7-naphthyridin-8-yl)amino)-2,2′-dimethyl-[1,1′-biphenyl]-3-yl)-4,6-dihydro-5H-pyrrolo[3,4-d]oxazol-5-yl)-2-oxoethyl)pyrrolidine-3-carboxylic acid], which IC50 is on record?
Answer: The IC50 was at most 10 nM.

Question: `Cc1c(Nc2nccc3cc(CN4CC[C@@H](O)C4)cnc23)cccc1-c1cccc(-c2nc3c(o2)CN(C(=O)CN2CC[C@@H](C(=O)O)C2)C3)c1C` [Example 41, (R)-1-(2-(2-(3′-((3-(((R)-3-hydroxypyrrolidin-1-yl)methyl)-1,7-naphthyridin-8-yl)amino)-2,2′-dimethyl-[1,1′-biphenyl]-3-yl)-4,6-dihydro-5H-pyrrolo[3,4-d]oxazol-5-yl)-2-oxoethyl)pyrrolidine-3-carboxylic acid] was tested. Which IC50 did it give?
Answer: Its IC50 is at most 10 nM.

Question: `Cc1c(Nc2nccc3cc(CN4CC[C@@H](O)C4)cnc23)cccc1-c1cccc(-c2nc3c(o2)CN(C(=O)CN2CCCC[C@H]2C(=O)O)C3)c1C` [Example 42, (S)-1-(2-(2-(3′-((3-(((R)-3-hydroxypyrrolidin-1-yl)methyl)-1,7-naphthyridin-8-yl)amino)-2,2′-dimethyl-[1,1′-biphenyl]-3-yl)-4,6-dihydro-5H-pyrrolo[3,4-d]oxazol-5-yl)-2-oxoethyl)piperidine-2-carboxylic acid] was tested. Which IC50 did it give?
Answer: The IC50 was at most 10 nM.

Question: For `Cc1c(COc2cc(OCc3cncc(C#N)c3)c(CN3CCCC[C@H]3C(=O)O)cc2Cl)cccc1-c1cccc(Nc2nccc3cc(CN4CC[C@@H](O)C4)cnc23)c1C` [Example 43, (S)-1-(5-chloro-2-((5-cyanopyridin-3-yl)methoxy)-4-((3′-((3-(((R)-3-hydroxypyrrolidin-1-yl)methyl)-1,7-naphthyridin-8-yl)amino)-2,2′-dimethyl-[1,1′-biphenyl]-3-yl)methoxy)benzyl)piperidine-2-carboxylic acid], which IC50 is on record?
Answer: The IC50 was at most 10 nM.

Question: `Cc1c(COc2cc(OCc3cncc(C#N)c3)c(CN3CC[C@@H](C(=O)O)C3)cc2Cl)cccc1-c1cccc(Nc2nccc3cc(CN4CC[C@@H](O)C4)cnc23)c1C` [Example 44, (R)-1-(5-chloro-2-((5-cyanopyridin-3-yl)methoxy)-4-((3′-((3-(((R)-3-hydroxypyrrolidin-1-yl)methyl)-1,7-naphthyridin-8-yl)amino)-2,2′-dimethyl-[1,1′-biphenyl]-3-yl)methoxy)benzyl)pyrrolidine-3-carboxylic acid] was tested. Which IC50 did it give?
Answer: Its IC50 is at most 10 nM.

Question: Which IC50 does the source give for `Cc1c(Nc2nccc3cc(CN4CC[C@@](C)(C(=O)O)C4)cnc23)cccc1-c1cccc(NC(=O)c2nc3c(n2C)CCNC3)c1Cl` [Example 45, (R)-1-((8-(2′-Chloro-2-methyl-3′-(1-methyl-4,5,6,7-tetrahydro-1H-imidazo[4,5-c]pyridine-2-carboxamido)biphenyl-3-ylamino)-1,7-naphthyridin-3-yl)methyl)-3-methylpyrrolidine-3-carboxylic acid] here?
Answer: Its IC50 is at most 10 nM.
